The test system of this experiment is BDF1 mice, P388 leukemia ip, median survival T/C. Briefly: NCI In Vivo Anticancer Drug Screen. Data for tumor model P388 Leukemia (intraperitoneal) in B6D2F1 (BDF1) mice. The settings on record: endpoint: median survival time, higher = longer survival. Summed up:
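Each value expresses how treatment altered survival: treated-mouse outcome over vehicle-mouse outcome, both groups bearing the transplanted tumour.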

[1] abbreviates: dose: 6.25 mg/kg/injection, schedule: Q01DX009 (ip), vehicle: Klucel (hydroxypropylcellulose) (HPC).
Setting [2] is: dose: 50.0 mg/kg/injection, schedule: Q04DX002 (ip), vehicle: saline with Tween-80.
The mark [3] stands for this setting: dose: 50.0 mg/kg/injection, schedule: Q01DX009 (ip), vehicle: saline with Tween-80.
[4] abbreviates: dose: 100.0 mg/kg/injection, schedule: Q01DX009 (ip), vehicle: saline with Tween-80.
Where [5] appears, read: dose: 200.0 mg/kg/injection, schedule: Q01DX009 (ip), vehicle: saline with Tween-80.
Setting [6] is: dose: 400.0 mg/kg/injection, schedule: Q01DX009 (ip), vehicle: saline with Tween-80.
Where [7] appears, read: dose: 4.0 mg/kg/injection, schedule: Q01DX009 (ip), vehicle: saline.
Setting [8] is: dose: 5.0 mg/kg/injection, schedule: Q01DX009 (ip), vehicle: saline.
Setting [9] is: dose: 10.0 mg/kg/injection, schedule: Q01DX009 (ip), vehicle: saline.
[10] abbreviates: dose: 12.5 mg/kg/injection, schedule: Q01DX009 (ip), vehicle: saline.

“And” between values parts separate entries of the source, which are not always exact repeats. Equal values may be shown once. Inconclusive results and toxic doses are left out.

Take `Nc1nc(N)c2cc(NCc3ccccc3Cl)ccc2n1`: the T/C runs as follows: (dose: 2.34 mg/kg/injection, schedule: Q04DX003 (ip), vehicle: Klucel (hydroxypropylcellulose) (HPC)) 104 % of control; (dose: 4.68 mg/kg/injection, schedule: Q04DX003 (ip), vehicle: Klucel (hydroxypropylcellulose) (HPC)) 100 % of control; under setting [1], 105 % of control; (dose: 9.37 mg/kg/injection, schedule: Q04DX003 (ip), vehicle: Klucel (hydroxypropylcellulose) (HPC)) 122 % of control; (dose: 12.5 mg/kg/injection, schedule: Q01DX009 (ip), vehicle: Klucel (hydroxypropylcellulose) (HPC)) 110 % of control; (dose: 18.75 mg/kg/injection, schedule: Q04DX003 (ip), vehicle: Klucel (hydroxypropylcellulose) (HPC)) 100 % of control. For the setting “dose: 25.0 mg/kg/injection, schedule: Q01DX009 (ip), vehicle: Klucel (hydroxypropylcellulose) (HPC)”, the T/C was 100 % of control.

Turning to `Cc1ccccc1N1C(=O)CSC1=S`, the T/C is, setting by setting: (dose: 100.0 mg/kg/injection, schedule: Q04DX003 (ip), vehicle: saline with Tween-80) 100 % of control; (dose: 132.0 mg/kg/injection, schedule: Q04DX003 (ip), vehicle: saline with Tween-80) 90 % of control; (dose: 200.0 mg/kg/injection, schedule: Q04DX003 (ip), vehicle: saline with Tween-80) 100 % of control; (dose: 300.0 mg/kg/injection, schedule: Q04DX003 (ip), vehicle: saline with Tween-80) 100 % of control; (dose: 400.0 mg/kg/injection, schedule: Q04DX003 (ip), vehicle: saline with Tween-80) 90 % of control.

Regarding `CC(=O)Nc1ccc(/C=C\c2ccnc3ccccc23)cc1`, the T/C is, setting by setting: (dose: 33.3 mg/kg/injection, schedule: Q04DX002 (ip), vehicle: saline with Tween-80) 111 % of control; under setting [2], 107 % of control; (dose: 75.0 mg/kg/injection, schedule: Q04DX002 (ip), vehicle: saline with Tween-80) 112 % of control.

For `Cc1c(Cl)cccc1NC(=O)/C=C/C(=O)O`, the T/C runs as follows: (dose: 44.0 mg/kg/injection, schedule: Q01DX009 (ip), vehicle: saline with Tween-80) 95 % of control; under setting [3], 122 % of control; (dose: 66.0 mg/kg/injection, schedule: Q01DX009 (ip), vehicle: saline with Tween-80) 100 % of control; under setting [4], 100 % of control; (dose: 150.0 mg/kg/injection, schedule: Q01DX009 (ip), vehicle: saline with Tween-80) 104 % of control; under setting [5], 109 % of control.

For `CC1=Cc2ccc(C)cc2C(=O)C1=O`, the T/C runs as follows: (dose: 3.13 mg/kg/injection, schedule: Q01DX009 (ip), vehicle: Klucel (hydroxypropylcellulose) (HPC)) 102 % of control; under setting [1], 108 % of control.

`O/N=C\c1c(O)ccc2ccccc12`: the T/C by setting is: (dose: 100.0 mg/kg/injection, schedule: Q01DX001 (ip), vehicle: saline with Tween-80) 106 % of control; (dose: 200.0 mg/kg/injection, schedule: Q01DX001 (ip), vehicle: saline with Tween-80) 105 % of control; (dose: 400.0 mg/kg/injection, schedule: Q01DX001 (ip), vehicle: saline with Tween-80) 106 % of control.

As for `CCC1C(=O)NC(=O)C1(C)c1ccccc1` (stereo not drawn), the T/C was 191 % of control under setting [3], 122 % of control under setting [4] and 120 % of control under setting [5].

Consider `O=C1C(C2OC2c2ccccc2)CCCC1C1OC1c1ccccc1` (stereo not drawn), for which the T/C runs as follows: (dose: 100.0 mg/kg/injection, schedule: Q04DX003 (ip), vehicle: saline sonified) 100 % of control; under setting [5], 91 % of control; (dose: 200.0 mg/kg/injection, schedule: Q04DX003 (ip), vehicle: saline sonified) 95 % of control; under setting [6], 87 % of control; (dose: 400.0 mg/kg/injection, schedule: Q04DX003 (ip), vehicle: saline sonified) 95 % of control.

For `NC(=O)C1(N2CCCCC2)CCN(CCCC(=O)c2ccc(F)cc2)CC1`, the T/C runs as follows: (dose: 37.5 mg/kg/injection, schedule: Q01DX009 (ip), vehicle: Klucel (hydroxypropylcellulose) (HPC)) 107 % of control; (dose: 150.0 mg/kg/injection, schedule: Q01DX009 (ip), vehicle: Klucel (hydroxypropylcellulose) (HPC)) 117 % of control.

With `COc1cc(O)c2c(c1)C(=O)c1cc3c(c(O)c1C2=O)C(OC1OC(C)C(O)C(O)C1OC)C(OC)C(C)(O)C3=O` (stereo not drawn), the T/C runs as follows: (dose: 25.9 mg/kg/injection, schedule: Q01DX009 (ip), vehicle: Klucel (hydroxypropylcellulose) (HPC)) 116 % of control; (dose: 37.5 mg/kg/injection, schedule: Q01DX010 (ip), vehicle: carboxymethylcellulose (CMC)) 150 % of control; (dose: 37.5 mg/kg/injection, schedule: Q01DX010 (ip), vehicle: saline) 111 % of control and 115 % of control; (dose: 43.2 mg/kg/injection, schedule: Q01DX009 (ip), vehicle: Klucel (hydroxypropylcellulose) (HPC)) 121 % of control; (dose: 75.0 mg/kg/injection, schedule: Q01DX010 (ip), vehicle: carboxymethylcellulose (CMC)) 165 % of control; (dose: 75.0 mg/kg/injection, schedule: Q01DX010 (ip), vehicle: saline) 120 % of control and 122 % of control. Also, the T/C runs as follows: (dose: 108.0 mg/kg/injection, schedule: Q04DX003 (ip), vehicle: Klucel (hydroxypropylcellulose) (HPC)) 114 % of control; (dose: 120.0 mg/kg/injection, schedule: Q01DX009 (ip), vehicle: Klucel (hydroxypropylcellulose) (HPC)) 106 % of control; (dose: 180.0 mg/kg/injection, schedule: Q04DX003 (ip), vehicle: Klucel (hydroxypropylcellulose) (HPC)) 110 % of control; (dose: 300.0 mg/kg/injection, schedule: Q04DX003 (ip), vehicle: Klucel (hydroxypropylcellulose) (HPC)) 99 % of control; (dose: 500.0 mg/kg/injection, schedule: Q04DX003 (ip), vehicle: Klucel (hydroxypropylcellulose) (HPC)) 97 % of control.

Turning to `c1ccc2c[n+](CCCCCCCCCC[n+]3ccc4ccccc4c3)ccc2c1`, the T/C (dose: 1.0 mg/kg/injection, schedule: Q01DX009 (ip), vehicle: saline) is 104 % of control; the T/C (dose: 2.0 mg/kg/injection, schedule: Q01DX009 (ip), vehicle: saline) was 113 % of control; the T/C (dose: 2.5 mg/kg/injection, schedule: Q01DX009 (ip), vehicle: saline) is 110 % of control and 115 % of control; the T/C (dose: 2.6 mg/kg/injection, schedule: Q01DX009 (ip), vehicle: saline) is 120 % of control; the T/C under setting [7] is 110 % of control; the T/C under setting [8] is 107 % of control. Further, under setting [9], the T/C is 103 % of control and 112 % of control.

For `CN/N=C/c1cccnc1`, the T/C was 97 % of control under setting [10]; 95 % of control (dose: 25.0 mg/kg/injection, schedule: Q01DX009 (ip), vehicle: saline); 105 % of control under setting [3]; 95 % of control (dose: 50.0 mg/kg/injection, schedule: Q01DX009 (ip), vehicle: saline).

Turning to `N=C1CCCC1C(=S)SCCC(N)=O` (stereo not drawn), the T/C by setting is: under setting [3], 99 % of control; under setting [4], 99 % of control; under setting [5], 94 % of control.

Consider `CC([NH-])C(=O)O.CC([NH-])C(=O)O.[Ni+2]` (stereo not drawn), for which the T/C was 109 % of control under setting [7]; 103 % of control (dose: 6.25 mg/kg/injection, schedule: Q01DX009 (ip), vehicle: saline); 113 % of control (dose: 8.0 mg/kg/injection, schedule: Q01DX009 (ip), vehicle: saline); 107 % of control under setting [10]; 113 % of control (dose: 15.0 mg/kg/injection, schedule: Q04DX003 (ip), vehicle: saline); 113 % of control (dose: 16.0 mg/kg/injection, schedule: Q01DX009 (ip), vehicle: saline). Also, where the note is “dose: 25.0 mg/kg/injection, schedule: Q04DX003 (ip), vehicle: saline”, the T/C was 118 % of control.

Turning to `CC(=O)Nc1ccccc1C1SCCCS1`, the T/C runs as follows: under setting [2], 102 % of control; (dose: 100.0 mg/kg/injection, schedule: Q04DX002 (ip), vehicle: saline with Tween-80) 98 % of control; (dose: 200.0 mg/kg/injection, schedule: Q04DX002 (ip), vehicle: saline with Tween-80) 106 % of control.

On to `CCOc1ccc([N+](=O)[O-])cc1CN(CC)CC`, for which the T/C was 104 % of control under setting [8]; 95 % of control and 100 % of control under setting [9]; 113 % of control (dose: 20.0 mg/kg/injection, schedule: Q01DX009 (ip), vehicle: saline).

As for `O=c1cc(O)cc(/C=C/c2ccc(O)cc2)o1`, the T/C is 96 % of control under setting [4]; 107 % of control under setting [5]; 90 % of control (dose: 265.0 mg/kg/injection, schedule: Q01DX009 (ip), vehicle: saline with Tween-80); 98 % of control under setting [6].

Values taken from PubChem BioAssay AID328 (DTP/NCI, 2004).
